# Test results published in patent US20260325465A1, “SHP-1 INHIBITORS FOR TREATING CANCER” (MDX MANAGEMENT LLC, priority 2022, published 2026).
# Legend:
# SHP-1 = molecular target: T1, SHP-1 (Mus musculus, UniProt P29351); experiment: Pulse inhibition of SHP-1 in macrophages, SHP-1 activity (pNpp) over time; assay type: cell-based, murine
# T1 construct: lysate pNpp phosphatase activity after TPI-1 pulse
# Description: (§1) FIGS. 4A and 4B depict that pulse inhibition of SHP-1 transiently enhances proinflammatory signal transduction in macrophages. FIG. 4A: murine macrophages (bone marrow derived macrophages, or “BMDM”) were treated with TPI-1 for 15 min followed by wash to complete removal of TPI-1. At different time points after the TPI-1 treatment, macrophages were stimulated with IFNγ/LPS in the presence of alive cancer cells (1:1 ratio to BMDM) for 20 min prior to cell lysis and assaying SHP-1 activity using pNpp and WB detecting total and phosphorylated STAT1 and Erk1/2. FIG. 4B: the same setting as in FIG. 4A, except that after TPI-1 treatment, TPI-1 in medium was partially removed (50%) or without removal, followed by macrophage stimulation with IFNγ/LPS at different time points.
# macrophages = experiment: Macrophage cytokine production under immunosuppressive or proinflammatory stimulation with cancer cell ligation; assay type: cell-based
# From the text: FIGS. 6A-6D depict that the inhibition of SHP-1 promotes anti-tumor effects or pro-tumor effects under different circumstances. FIG. 6A depicts that intratumoral macrophages upregulate expression of iRs (Pir-B, Siglec E, F and G, and SIRPα) along with tumor progression to late-stage large sizes. KPC pancreatic tumors of small sizes (<150 mm^3) and those grown to larger sizes (>800 mm^3) were dissociated to single cells, followed by flow cytometry analyses for cell surface protein expression on macrophages (gated F4/80+). FIG. 6B depicts that the inhibition of SHP-1 alone promotes TME immunosuppression. Excised MC38 solid tumor cubes were treated with SHP-1 inhibitor TPI-1 (100 nM) or vehicle (DMSO) in a cell culture setting. After 24 h, tumor secreting cytokines into the culture medium were assayed by ELISA.
# The SHP-1 activity in non-therapeutic solid tumors is low (see FIGS. 7A-7D), and this low activity inhibits immunosuppressive receptor signaling. […] In parallel experiments, the same SHP-1 inhibitors augmented macrophage responses to the M1 stimuli IFNγ and LPS and enhanced proinflammatory cytokine production.
# STAT1 and Erk1/2 = experiment: Pulse inhibition of SHP-1, STAT1 and Erk1/2 phosphorylation (WB); assay type: cell-based, murine; details: IFNγ/LPS, immediately after treatment
# Description: as §1
# [1] = tested on: MC38 colorectal carcinoma; experiment: TME analysis of MC38 colorectal carcinoma in mice; assay type: in vivo, murine
# From the text: FIGS. 8A-8E depict that SHP-1 inhibition combined with TLR agonists (αTLR) reprograms TME of MC38 colorectal carcinoma. FIG. 8A depicts MC38 tumor treatment scheme.
# solid tumors = experiment: Intermittent period after TPI-1 combined therapy in tumors; assay type: in vivo, murine; details: TPI-1 combined with TLR agonists or RT
# From the text: Furthermore, these analyses of the TME immune landscape changes following TPI-1 combined therapies informed our design of the pulse-intermittent SHP-1 inhibition strategy for metastatic solid tumors. […] Along with macrophage reduction, tumor-associated SHP-1 activities also dwindled, a change that ousted the necessity of continuous TPI-1 application. This “intermittent” period lasted 3-6 days, a length dependent on TPI-1 and TLR agonists/RT dosages, as well as tumor type and stage prior to treatment. […] Consistent with these changes, the tumors after the intermittent period were reverted to growth, unless another cycle of TPI-1 combined therapy was applied, which were again effectively suppressing tumors.
# [2] = Study-2: acute adverse toxicity; assay type: in vivo, mice; details: intermittent iSHP-1 therapies
# Description: FIGS. 12A-12D depict that pulse-intermittent inhibition of SHP-1 (iSHP-1) combined with TLR agonists (αTLR) and/or anti-PD-L1 checkpoint inhibitor effectively treat multi-lesion MC38 colorectal carcinoma. FIG. 12A depicts the treatment scheme. Mice with bilateral MC38 tumors (s.c.) were treated for two days with TPI-1 and various combinations via i.p. or s.c. A 5-day intermittent period was given before the 2nd cycle of treatments to mice that had residue tumors. FIGS. 12B and 12C depict tumor control efficacies measured by tumor volume changes (FIG. 12B) and TME reprogramming, indicating increases in tumor killing immune populations while reduction of immunosuppression. FIG. 12D depicts acute adverse toxicity, measured by body weight, proteinuria, serum ALT level and splenomegaly.
# T1 sequence (P29351 whole entry): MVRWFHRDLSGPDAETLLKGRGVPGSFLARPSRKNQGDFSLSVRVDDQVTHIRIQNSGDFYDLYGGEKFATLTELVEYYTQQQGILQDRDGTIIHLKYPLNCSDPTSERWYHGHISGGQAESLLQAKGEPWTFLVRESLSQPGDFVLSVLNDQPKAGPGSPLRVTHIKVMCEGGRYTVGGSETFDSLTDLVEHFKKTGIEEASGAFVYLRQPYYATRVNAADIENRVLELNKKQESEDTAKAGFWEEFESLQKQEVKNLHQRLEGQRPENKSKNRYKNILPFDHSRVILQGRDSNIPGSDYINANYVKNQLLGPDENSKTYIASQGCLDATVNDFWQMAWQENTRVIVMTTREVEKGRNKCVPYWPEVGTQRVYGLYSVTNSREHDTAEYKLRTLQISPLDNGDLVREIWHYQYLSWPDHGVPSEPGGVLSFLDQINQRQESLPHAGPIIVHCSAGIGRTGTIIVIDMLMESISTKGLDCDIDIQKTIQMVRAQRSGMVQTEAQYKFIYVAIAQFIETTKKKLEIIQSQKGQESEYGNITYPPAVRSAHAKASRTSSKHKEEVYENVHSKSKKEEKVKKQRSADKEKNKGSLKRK
structure (smiles),measurement,setting,value
O=C1C=CC(=O)C(c2cc(Cl)ccc2Cl)=C1 [TPI-1],duration of pulse SHP-1 inhibition before activity starts to recover,"SHP-1; 15 min treatment, then wash",5 to 8 h
same,time for SHP-1 activity to recover to over 50%,"SHP-1; 15 min treatment, then wash",12 to 16 h
same,SHP-1 total protein,SHP-1; after pulse inhibition,did not appear to vary
same,SHP-1 inhibition (in words),SHP-1; immediately after 15 min treatment and wash,strong SHP-1 inhibition
same,SHP-1 activity recovered,SHP-1; in 12-16 h after 15 min treatment and wash,over 50%
same,time to recover SHP-1 activity after pulse inhibition,SHP-1; pulse inhibition in macrophages,24 h
same,SHP-1 inhibition without or with partial inhibitor removal,SHP-1; without removal or 50% removal,elongated inhibition on the SHP-1 activity
same,macrophage production of IL-12 and TNFα,macrophages; IFNγ and LPS,dose-dependently augmented macrophage proinflammatory response with increased IL-12 and TNFα
same,macrophage production of IL-10 and TGFβ,macrophages; IL-4/13 or IL-10 stimulation,dose-dependently augmented
same,pSTAT-1 and pErk1/2,STAT1 and Erk1/2,increased pSTAT-1 and pErk1/2
same,intratumoral macrophages,[1]; TPI-1 and αTLR,marked reduction of intratumoral macrophages
same,TME reprogramming,[1]; TPI-1 combined with αTLR,"reduction of tumor cells, and increases in immune infiltration especially tumoricidal CD8 T cells, neutrophils (PMN) and NK cells, while reduction of macrophages, MDSC and Treg"
same,length of intermittent period with reduced macrophages and tumor growth restraint,solid tumors,3 to 6 days
same,acute adverse toxicity,[2],did not incur acute adverse toxicity
